This is an account of results in ChEMBL document CHEMBL1201862, “PubChem BioAssay data set” (2004).

Calls of active or inactive are those of the source.

Test [1] addresses T1, Alkaline phosphatase, tissue-nonspecific isozyme (Homo sapiens, UniProt P05186).
T1 sequence (P05186 whole entry): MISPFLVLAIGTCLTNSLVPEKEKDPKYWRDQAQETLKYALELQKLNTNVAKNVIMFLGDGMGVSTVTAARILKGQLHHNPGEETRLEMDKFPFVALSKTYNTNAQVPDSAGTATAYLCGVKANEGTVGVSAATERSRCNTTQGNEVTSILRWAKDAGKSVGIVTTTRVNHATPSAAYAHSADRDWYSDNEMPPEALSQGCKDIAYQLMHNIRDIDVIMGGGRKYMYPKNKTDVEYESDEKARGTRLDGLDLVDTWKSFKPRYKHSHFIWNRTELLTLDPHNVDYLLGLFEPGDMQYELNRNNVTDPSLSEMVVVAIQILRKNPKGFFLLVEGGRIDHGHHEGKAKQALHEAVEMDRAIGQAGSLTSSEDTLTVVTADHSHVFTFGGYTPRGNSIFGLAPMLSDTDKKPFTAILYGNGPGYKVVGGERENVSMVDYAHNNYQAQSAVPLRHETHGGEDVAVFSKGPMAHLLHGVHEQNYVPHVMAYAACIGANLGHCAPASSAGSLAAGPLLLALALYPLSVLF
Description: TNAP enzyme activators, dose response, selectivity assay for mouse IAP activator project, biochemical, TNAP isozyme, mouse IAP uHTS hits (AID 488880). Format: functional.

The target in a further test is Large T antigen (Simian virus 40, UniProt P03070). Format: functional, Betapolyomavirus macacae.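 Further: Confirmatory-stage PubChem screen for compounds that inhibit SV40 T antigen.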
Large T antigen, sequence (P03070 whole entry): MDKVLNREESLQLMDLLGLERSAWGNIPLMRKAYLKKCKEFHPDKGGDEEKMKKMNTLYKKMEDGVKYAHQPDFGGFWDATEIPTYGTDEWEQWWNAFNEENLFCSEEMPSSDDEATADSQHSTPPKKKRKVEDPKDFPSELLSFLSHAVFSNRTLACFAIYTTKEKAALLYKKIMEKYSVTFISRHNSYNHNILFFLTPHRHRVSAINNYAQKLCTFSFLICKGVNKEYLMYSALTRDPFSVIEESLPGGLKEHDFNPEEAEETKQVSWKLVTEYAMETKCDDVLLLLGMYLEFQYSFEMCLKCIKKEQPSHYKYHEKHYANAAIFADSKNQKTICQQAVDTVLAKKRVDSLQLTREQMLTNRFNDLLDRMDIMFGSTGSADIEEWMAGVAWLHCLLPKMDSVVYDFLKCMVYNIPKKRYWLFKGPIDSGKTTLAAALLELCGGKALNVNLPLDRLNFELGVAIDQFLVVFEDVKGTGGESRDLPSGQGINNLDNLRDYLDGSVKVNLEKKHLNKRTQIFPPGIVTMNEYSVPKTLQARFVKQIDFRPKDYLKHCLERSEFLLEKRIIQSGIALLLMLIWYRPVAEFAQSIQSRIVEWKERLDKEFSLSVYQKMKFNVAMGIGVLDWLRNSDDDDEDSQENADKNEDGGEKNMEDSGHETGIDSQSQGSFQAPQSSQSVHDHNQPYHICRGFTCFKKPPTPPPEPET
The target in test [2] is Intestinal-type alkaline phosphatase (Mus musculus, UniProt P24822). Description: mouse intestinal alkaline phosphatase activators, dose response, biochemical, luminescence, uHTS hits (AID 488783). Type of test: functional.
The target of test [3] is Intestinal-type alkaline phosphatase (Homo sapiens, UniProt P09923). Description: activation of human intestinal alkaline phosphatase – biochemical, dose response (AID 488873). Type of test: functional.
Test [4] has as its target T2, Tyrosine-protein phosphatase non-receptor type 22 (Homo sapiens, UniProt Q9Y2R2).
T2 sequence (Q9Y2R2 whole entry): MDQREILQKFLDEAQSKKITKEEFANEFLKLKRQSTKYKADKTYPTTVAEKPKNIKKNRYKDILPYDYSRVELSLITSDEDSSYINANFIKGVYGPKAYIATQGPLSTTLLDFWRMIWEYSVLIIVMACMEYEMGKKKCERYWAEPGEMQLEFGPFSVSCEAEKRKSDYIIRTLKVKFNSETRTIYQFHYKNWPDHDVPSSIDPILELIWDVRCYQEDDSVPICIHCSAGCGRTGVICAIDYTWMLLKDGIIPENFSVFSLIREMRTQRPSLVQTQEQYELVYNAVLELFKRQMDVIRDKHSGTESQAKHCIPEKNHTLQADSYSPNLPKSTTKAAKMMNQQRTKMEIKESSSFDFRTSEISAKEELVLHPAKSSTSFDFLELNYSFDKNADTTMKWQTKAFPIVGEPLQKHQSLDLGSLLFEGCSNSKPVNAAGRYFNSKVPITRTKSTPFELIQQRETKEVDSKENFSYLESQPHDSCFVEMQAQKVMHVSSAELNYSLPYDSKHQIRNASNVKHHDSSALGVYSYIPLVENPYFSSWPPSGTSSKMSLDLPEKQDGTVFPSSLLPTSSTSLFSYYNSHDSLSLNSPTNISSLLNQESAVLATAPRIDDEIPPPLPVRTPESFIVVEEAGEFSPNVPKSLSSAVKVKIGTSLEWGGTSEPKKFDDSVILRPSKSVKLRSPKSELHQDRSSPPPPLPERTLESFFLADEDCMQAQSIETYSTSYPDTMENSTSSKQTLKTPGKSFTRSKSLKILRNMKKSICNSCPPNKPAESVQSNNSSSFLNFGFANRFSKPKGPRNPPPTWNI
Description: PubChem AID 2140.

The target of test [5] is T3, Tyrosine-protein phosphatase non-receptor type 7 (Homo sapiens, UniProt P35236).
T3 sequence (P35236 whole entry): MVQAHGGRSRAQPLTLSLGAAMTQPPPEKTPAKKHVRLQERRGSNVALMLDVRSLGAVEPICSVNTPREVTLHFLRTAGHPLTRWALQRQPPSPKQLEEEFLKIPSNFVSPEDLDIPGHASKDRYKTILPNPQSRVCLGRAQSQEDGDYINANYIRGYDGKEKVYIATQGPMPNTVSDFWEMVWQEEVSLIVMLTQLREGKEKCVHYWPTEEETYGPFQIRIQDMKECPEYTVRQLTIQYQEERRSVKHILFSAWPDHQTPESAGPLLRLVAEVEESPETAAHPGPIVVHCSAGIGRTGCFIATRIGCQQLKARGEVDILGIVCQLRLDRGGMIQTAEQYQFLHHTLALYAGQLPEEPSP
Format: functional.

The target in test [6] is T2, Tyrosine-protein phosphatase non-receptor type 22. The experiment in a line: SAR LYP1 Fluorescent Assay using OMFP substrate for In Vitro dose response studies - Set 2. [Related pubchem assays (depositor defined):AID1779, AID1784, AID2140, AID449726, AID488869]. Format: functional.
The target in test [7] is T3, Tyrosine-protein phosphatase non-receptor type 7. Description: HePTP (PTPN7) phosphatase inhibitor potency, SAR follow-up, biochemical, set 2 (AID 449736). Format: functional.
Test [8] addresses Tyrosine-protein phosphatase non-receptor type 12 (Homo sapiens, UniProt Q05209). The experiment in a line: SAR Selectivity Analysis of small molecule inhibitors of PEST using pCAP in a fluorescence assay. [Related pubchem assays (depositor defined):AID1779, AID1784, AID2135]. Type of test: functional.
Test [9] has as its target T2, Tyrosine-protein phosphatase non-receptor type 22. Format: functional.
Test [10] shares this target. Description: LYP (PTPN22) phosphatase inhibitor potency, SAR follow-up, biochemical, pCAP fluorogenic substrate, fluorescence, set 3 (AID 449727). Type of test: functional.
Test [11] concerns the target T4, Voltage-gated N-type calcium channel alpha-1B subunit/Amyloid beta A4 precursor protein-binding family A member 1 (Homo sapiens, UniProt Q00975+Q02410). Type of test: protein assay.
Test [12] deals with T3, Tyrosine-protein phosphatase non-receptor type 7. Description: HTS HePTP Fluorescent Assay using OMFP substrate for In Vitro dose response studies. [Related pubchem assays (depositor defined):AID1059, AID1077, AID1784, AID2068, AID2085, AID435032, AID521]. Type of test: functional.
The target in test [13] is T2, Tyrosine-protein phosphatase non-receptor type 22. Description: SAR LYP1 Fluorescent Assay using pCAP substrate for In Vitro dose response studies - Set 2. [Related pubchem assays (depositor defined):AID1779, AID1784, AID2135, AID449727]. Format: functional.
The target is the same in test [14]. Type of test: functional. The source holds these as a separate data set.
Test [15] concerns the target T4, Voltage-gated N-type calcium channel alpha-1B subunit/Amyloid beta A4 precursor protein-binding family A member 1. Format: protein assay. This is another data set of the same source.
The target in test [16] is T2, Tyrosine-protein phosphatase non-receptor type 22. Description: SAR LYP1 Fluorescent Assay using OMFP substrate for In Vitro dose response studies - Set 3. [Related pubchem assays (depositor defined):AID1779, AID1784, AID2140, AID2686]. Format: functional.
For test [17] the target is unchanged. The experiment in a line: inhibitors of LYP phosphatase, biochemical, fluorescence intensity, uHTS (AID 1779).
Test [18] has the same target. Description: LYP1 Fluorescent Assay using OMFP substrate for In Vitro dose response studies. [Related pubchem assays (depositor defined):AID1779, AID1784, AID435024].
Test [19] has the same target. Description: PubChem AID 2135.
Test [20] in a line: HEp-2 cell cytotoxicity, dose response, cytotoxicity control for RSV inhibitor project, HTS (AID 2410). Type of test: functional. Conditions: human respiratory syncytial virus.
Test [21] concerns the target T5, Kappa-type opioid receptor (Homo sapiens, UniProt P41145). The experiment in a line: kappa opioid receptor blockers, cell-based, luminescence, beta-arrestin, SAR follow-up (AID 2285). Format: functional.
The target in test [22] is T6, Mu-type opioid receptor (Homo sapiens, UniProt P35372). Description: MOR antagonists, SAR follow-up, image-based (AID 2420).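 Further: compounds added before stimulation of receptor with agonist DAMGO.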 Type of test: functional.
T6 sequence (P35372 whole entry): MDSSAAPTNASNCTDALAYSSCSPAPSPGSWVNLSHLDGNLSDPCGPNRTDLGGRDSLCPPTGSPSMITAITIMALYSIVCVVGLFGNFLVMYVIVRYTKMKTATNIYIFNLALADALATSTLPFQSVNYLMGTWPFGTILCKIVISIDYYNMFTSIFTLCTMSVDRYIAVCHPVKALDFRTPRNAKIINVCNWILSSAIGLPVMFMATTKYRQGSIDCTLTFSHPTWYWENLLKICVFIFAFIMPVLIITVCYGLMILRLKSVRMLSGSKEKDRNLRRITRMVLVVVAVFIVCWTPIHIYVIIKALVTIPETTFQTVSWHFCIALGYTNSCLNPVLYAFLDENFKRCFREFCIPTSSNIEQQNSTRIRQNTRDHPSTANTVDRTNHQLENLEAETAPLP
Test [23] concerns the target T6, Mu-type opioid receptor. Description: MOR agonists by imaging, SAR follow-up, image-based (AID 2352). Format: functional.
In test [24] the target is T5, Kappa-type opioid receptor. Description: KOR antagonists by imaging, SAR follow-up, image-based (AID 2348). Format: functional.
Test [25] deals with T5, Kappa-type opioid receptor. The experiment in a line: KOR agonist analogs, imaging readout, SAR follow-up, image-based (AID 2359). Type of test: functional.
Test [26] has as its target T7, Delta-type opioid receptor (Homo sapiens, UniProt P41143). Description: DOR antagonists, SAR follow-up, image-based (AID 2357). Type of test: functional.
Test [27] addresses T7, Delta-type opioid receptor. The experiment in a line: DOR agonists, SAR follow-up, image-based (AID 2370). Format: functional.
The target of test [28] is T5, Kappa-type opioid receptor. Description: SAR analysis of small molecule antagonists of the kappa opioid receptor via a luminescent beta-arrestin assay - Set 4. [Related pubchem assays (depositor defined):AID1777, AID1778, AID1785, AID1786, AID1966, AID2133, AID2136, AID2285]. Type of test: functional.
Test [29] addresses T5, Kappa-type opioid receptor. The experiment in a line: SAR analysis of small molecule antagonists of the kappa opioid receptor via a luminescent beta-arrestin assay - Set 5. [Related pubchem assays (depositor defined):AID1778, AID1785]. Type of test: functional.

T5 sequence (P41145 whole entry): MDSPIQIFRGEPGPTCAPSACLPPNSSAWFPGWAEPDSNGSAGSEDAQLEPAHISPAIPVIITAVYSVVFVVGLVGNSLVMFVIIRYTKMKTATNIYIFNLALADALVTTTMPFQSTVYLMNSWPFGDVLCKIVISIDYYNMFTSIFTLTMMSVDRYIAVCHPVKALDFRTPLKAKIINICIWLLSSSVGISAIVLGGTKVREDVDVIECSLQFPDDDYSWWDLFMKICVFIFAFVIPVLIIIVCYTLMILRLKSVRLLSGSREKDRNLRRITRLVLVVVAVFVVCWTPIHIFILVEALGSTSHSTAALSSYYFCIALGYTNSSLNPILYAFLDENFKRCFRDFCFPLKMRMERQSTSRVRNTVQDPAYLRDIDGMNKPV
T4 sequence (Q00975 whole entry): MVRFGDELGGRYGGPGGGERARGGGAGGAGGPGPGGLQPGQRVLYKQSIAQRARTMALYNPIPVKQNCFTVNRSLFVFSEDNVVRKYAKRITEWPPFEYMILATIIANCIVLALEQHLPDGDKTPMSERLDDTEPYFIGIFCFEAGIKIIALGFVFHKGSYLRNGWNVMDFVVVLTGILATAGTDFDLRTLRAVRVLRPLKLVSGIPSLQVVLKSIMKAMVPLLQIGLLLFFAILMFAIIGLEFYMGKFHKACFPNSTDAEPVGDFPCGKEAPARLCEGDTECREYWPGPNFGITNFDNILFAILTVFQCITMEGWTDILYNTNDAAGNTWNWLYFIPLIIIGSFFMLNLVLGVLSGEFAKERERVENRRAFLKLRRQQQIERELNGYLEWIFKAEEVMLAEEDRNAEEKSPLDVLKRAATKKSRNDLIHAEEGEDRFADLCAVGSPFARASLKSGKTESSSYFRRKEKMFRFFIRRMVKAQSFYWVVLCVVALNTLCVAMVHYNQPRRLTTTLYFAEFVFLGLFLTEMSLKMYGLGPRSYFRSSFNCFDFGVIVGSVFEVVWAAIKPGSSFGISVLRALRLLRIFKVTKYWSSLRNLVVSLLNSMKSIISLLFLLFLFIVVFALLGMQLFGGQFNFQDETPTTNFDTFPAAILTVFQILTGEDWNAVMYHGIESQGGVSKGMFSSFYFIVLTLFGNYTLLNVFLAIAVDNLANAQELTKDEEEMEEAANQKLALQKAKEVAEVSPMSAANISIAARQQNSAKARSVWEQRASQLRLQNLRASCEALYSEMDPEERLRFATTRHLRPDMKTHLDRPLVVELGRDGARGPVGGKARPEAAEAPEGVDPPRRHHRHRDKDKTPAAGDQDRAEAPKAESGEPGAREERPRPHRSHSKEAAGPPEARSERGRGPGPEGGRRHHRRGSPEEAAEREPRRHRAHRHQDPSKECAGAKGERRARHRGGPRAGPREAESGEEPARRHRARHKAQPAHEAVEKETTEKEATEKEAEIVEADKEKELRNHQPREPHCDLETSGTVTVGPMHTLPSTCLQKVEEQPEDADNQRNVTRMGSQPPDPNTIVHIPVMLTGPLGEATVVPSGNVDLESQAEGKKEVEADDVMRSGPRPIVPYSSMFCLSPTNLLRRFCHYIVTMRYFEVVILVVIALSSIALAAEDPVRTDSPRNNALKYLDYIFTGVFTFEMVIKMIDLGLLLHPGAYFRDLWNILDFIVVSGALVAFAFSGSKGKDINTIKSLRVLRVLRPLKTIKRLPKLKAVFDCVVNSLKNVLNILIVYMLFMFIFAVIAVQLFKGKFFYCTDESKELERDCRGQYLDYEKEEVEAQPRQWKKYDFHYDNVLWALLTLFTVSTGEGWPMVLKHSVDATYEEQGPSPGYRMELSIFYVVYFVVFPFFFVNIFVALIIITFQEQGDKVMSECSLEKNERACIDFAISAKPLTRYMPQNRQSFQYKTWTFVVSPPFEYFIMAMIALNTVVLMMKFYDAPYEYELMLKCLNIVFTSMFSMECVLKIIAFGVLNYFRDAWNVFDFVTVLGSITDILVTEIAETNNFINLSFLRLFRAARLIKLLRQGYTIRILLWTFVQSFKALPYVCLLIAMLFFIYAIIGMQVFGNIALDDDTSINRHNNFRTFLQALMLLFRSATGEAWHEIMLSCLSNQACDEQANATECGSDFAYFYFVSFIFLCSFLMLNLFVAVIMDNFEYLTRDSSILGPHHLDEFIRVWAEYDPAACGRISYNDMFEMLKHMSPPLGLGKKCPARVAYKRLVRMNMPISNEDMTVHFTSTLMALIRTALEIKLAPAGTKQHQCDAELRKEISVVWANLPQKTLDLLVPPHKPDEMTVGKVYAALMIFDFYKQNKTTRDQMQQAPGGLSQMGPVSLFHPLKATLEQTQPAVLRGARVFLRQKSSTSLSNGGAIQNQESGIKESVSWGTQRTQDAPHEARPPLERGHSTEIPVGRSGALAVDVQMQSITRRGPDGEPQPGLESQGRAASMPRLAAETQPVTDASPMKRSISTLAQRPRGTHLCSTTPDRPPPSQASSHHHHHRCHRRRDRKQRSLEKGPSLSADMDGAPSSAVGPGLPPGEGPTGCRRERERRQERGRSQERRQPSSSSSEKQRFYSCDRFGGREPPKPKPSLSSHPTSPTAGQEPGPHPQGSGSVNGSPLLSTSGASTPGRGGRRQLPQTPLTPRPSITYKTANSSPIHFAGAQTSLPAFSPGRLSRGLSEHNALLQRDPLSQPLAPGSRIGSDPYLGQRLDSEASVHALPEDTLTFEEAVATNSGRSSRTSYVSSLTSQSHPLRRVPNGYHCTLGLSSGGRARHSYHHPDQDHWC
T4 sequence (Q02410 whole entry): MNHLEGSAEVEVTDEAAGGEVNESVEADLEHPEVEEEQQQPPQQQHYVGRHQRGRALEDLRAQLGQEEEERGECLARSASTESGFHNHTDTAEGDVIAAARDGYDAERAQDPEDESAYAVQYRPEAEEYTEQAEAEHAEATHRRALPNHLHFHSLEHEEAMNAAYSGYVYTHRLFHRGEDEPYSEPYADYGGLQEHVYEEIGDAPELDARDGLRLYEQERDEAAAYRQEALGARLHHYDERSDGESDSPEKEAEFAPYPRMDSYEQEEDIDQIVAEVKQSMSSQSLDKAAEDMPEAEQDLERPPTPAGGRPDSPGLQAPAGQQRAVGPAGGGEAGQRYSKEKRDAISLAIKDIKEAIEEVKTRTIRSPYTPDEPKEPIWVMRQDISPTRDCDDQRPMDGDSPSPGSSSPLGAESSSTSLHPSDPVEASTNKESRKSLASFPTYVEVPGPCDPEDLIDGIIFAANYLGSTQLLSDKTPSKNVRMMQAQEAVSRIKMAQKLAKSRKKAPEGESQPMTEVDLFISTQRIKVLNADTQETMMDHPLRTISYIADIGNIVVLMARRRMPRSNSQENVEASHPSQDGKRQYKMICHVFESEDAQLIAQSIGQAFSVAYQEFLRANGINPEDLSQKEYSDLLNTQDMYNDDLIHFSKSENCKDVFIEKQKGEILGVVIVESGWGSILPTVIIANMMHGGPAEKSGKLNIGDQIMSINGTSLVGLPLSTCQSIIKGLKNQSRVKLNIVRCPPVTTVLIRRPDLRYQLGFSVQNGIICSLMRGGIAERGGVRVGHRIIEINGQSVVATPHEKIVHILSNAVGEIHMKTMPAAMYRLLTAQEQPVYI
T7 sequence (P41143 whole entry): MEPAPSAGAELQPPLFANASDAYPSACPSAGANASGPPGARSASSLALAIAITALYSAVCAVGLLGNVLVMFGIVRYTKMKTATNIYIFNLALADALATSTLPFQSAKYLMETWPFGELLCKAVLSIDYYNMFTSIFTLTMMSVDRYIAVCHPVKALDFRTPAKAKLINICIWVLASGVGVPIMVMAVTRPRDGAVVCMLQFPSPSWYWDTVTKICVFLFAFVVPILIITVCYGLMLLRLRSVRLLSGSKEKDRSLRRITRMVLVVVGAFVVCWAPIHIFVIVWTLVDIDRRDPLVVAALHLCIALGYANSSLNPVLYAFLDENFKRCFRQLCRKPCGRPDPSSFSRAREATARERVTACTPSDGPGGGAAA

For orientation: EC50 means the concentration needed to bring the measured effect to its halfway point. By IC50 is commonly meant the concentration needed to halve the response being measured. As to `N#C/C(=C\c1coc2ccc(O)cc2c1=O)C(=O)/N=c1\[nH]c2ccccc2s1`, the results for the EC50 in test [1], in test [2] and in test [3] were 88.5 µM (active), 85 µM (active) and 81.5 µM (active), respectively. The IC50 on Large T antigen was 15.9 µM (active).

The term CC50 denotes the concentration that lowers cell viability or growth by half. `N#C/C(=C/c1ccc(OCc2ccc(C(=O)O)cc2)c(Br)c1)c1cccc(F)c1`: the IC50 in [4] was 7.71 µM (active); in [5], 14.6 µM (active); in test [6], 3.15 µM (active); in [7] it was 0.481 µM (active); in [8] it was 1.65 µM (active); in [9], 15.7 µM (active). Besides, the IC50 in test [10] is 4.86 µM (active); in [11], > 50 µM (inactive); in [12], 8.8 µM (active); in test [13], 1.6 µM (active); in [14] it was 2.61 µM (active); in [15], 13.7 µM (active). The IC50 in [16] was 20.5 µM (active); in test [17], 12.6 µM (active); in test [18] it was 18.8 µM (active); in [19] it was 2.66 µM (active). For the same molecule, the CC50 in [20] is > 50 µM (active).

As to `CCC(=NNc1ccnc2cc(Cl)ccc12)c1ccc(O)cc1`, the IC50 in test [21] was 3.54 µM (active); on Mu-type opioid receptor [22], > 32 µM (inactive); in test [24] it was 3.62 µM (active); in test [26], > 32 µM (inactive). Besides, the EC50 on Mu-type opioid receptor [23] is 25.3 µM (inactive); in test [25] it was > 32 µM (inactive); in [27] it was 30.7 µM (inactive).

Consider `COc1ccc(CN(CCNC(=O)c2ccc(CNS(=O)(=O)Cc3ccccc3)cc2)C(C)C)cc1`, for which the half-maximal inhibitory concentration (IC50) in test [28] is 1.66 µM (active); in test [29], 0.452 µM (active).
